In patent publication US20250304537A1 (Repare Therapeutics Inc., priority 2022, published 2025):
Like-named read-outs stand apart in the source and are kept apart here.

Assays:
[1] = biological target: recombinant human Myt1 (full length PKMYT1) (Homo sapiens (Human), UniProt Q99640); test: Recombinant human Myt1 kinase assay (ADP-Glo); assay type: biochemical; conditions: 10 μM ATP
Summary of the method: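 Full-length insect-cell-expressed human Myt1 (18 nM final) was preincubated with compound (0.5% DMSO) for 15 min at 22 °C. The reaction ran with 10 μM ATP for 60 min at 30 °C in HEPES buffer with Mg2+/Mn2+ and DTT. ADP formed was read by ADP-Glo luminescence, giving IC50 and % max inhibition.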

[2] = test system: PKMYT1 (CDK1 pThr14) in FUOV1 cells; test: PKMYT1 cell-based activity assay, CDK1 pThr14 AlphaLISA in FUOV1 cells; conditions: read-out: FUOV-1 CDK1 pThr14 IC50
Summary of the method: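 FUOV1 cells were treated with PKMYT1 inhibitor for 2 h at 37 °C, then lysed. CDK1 pThr14 was measured by AlphaLISA, pairing an anti-pThr14 antibody with an anti-total CDK1 antibody (5 nM each). Signal read at 680/615 nm and used to derive IC50.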

Sequence of recombinant human Myt1 (full length PKMYT1) (Q99640 whole entry): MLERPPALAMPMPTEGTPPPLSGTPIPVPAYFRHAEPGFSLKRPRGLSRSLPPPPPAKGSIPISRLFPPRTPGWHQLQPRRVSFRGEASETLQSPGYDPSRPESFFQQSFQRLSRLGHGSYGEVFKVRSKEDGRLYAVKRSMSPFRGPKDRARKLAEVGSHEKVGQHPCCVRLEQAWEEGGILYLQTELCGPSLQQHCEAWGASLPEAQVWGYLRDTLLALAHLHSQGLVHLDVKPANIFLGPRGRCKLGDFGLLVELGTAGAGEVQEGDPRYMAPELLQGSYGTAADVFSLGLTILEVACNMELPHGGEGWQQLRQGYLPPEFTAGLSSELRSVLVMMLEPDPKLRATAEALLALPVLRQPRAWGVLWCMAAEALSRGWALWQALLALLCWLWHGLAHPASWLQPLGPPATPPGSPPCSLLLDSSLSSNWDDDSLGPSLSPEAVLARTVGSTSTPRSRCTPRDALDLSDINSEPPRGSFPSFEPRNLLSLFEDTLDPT

`COCCOc1cccc(-c2cc(-c3c(C)ccc4[nH]ncc34)c(N)c(C(N)=O)n2)n1` [Compound 245] showed an IC50 [1] of 10 nM and an IC50 ([2]; 2 h, 2 h incubation) of 539 nM.
For `Cc1ccc2[nH]ncc2c1-c1nc(-c2ccncc2)nc(C(N)=O)c1N` [Compound 100], the IC50 [1] was 27 nM and the IC50 ([2]; 2 h, 2 h incubation) was 1230 nM.
`Cc1ccc2[nH]ncc2c1-c1nc(-c2cn(C)nc2NC2CCOCC2)nc(C(N)=O)c1N` [Compound 845] was tested, and the IC50 [1] was 4 nM and the IC50 ([2]; 2 h, 2 hours with compound) was 58 nM.
In the case of `Cc1ccc2[nH]ncc2c1-c1nc(-c2ccccc2NC(=O)C2(C)CC2(F)F)nc(C(N)=O)c1N` (centres unmarked) [Compound 443], the IC50 [1] is reported as 3 nM and the IC50 ([2]; 2 h, 2 h compound incubation) is reported as 26 nM.
`CC(C)(C)C(=O)Nc1ccccc1-c1nc(C(N)=O)c(N)c(-c2c(Cl)ccc3[nH]ncc23)n1` [Compound 403] was tested, and the IC50 [1] was 2 nM and the IC50 ([2]; 2 h, 2 h compound incubation) was 14 nM.
`Cc1ccc(O)cc1-c1nc(-c2cccc(N3CCOCC3)c2)nc(C(N)=O)c1N` [Compound 27] showed an IC50 [1] of 11 nM and an IC50 ([2]; 2 h, 2 h incubation) of 319 nM.
With `Cc1ccc2[nH]ncc2c1-c1cc(-c2ccnc(OC3CCCC3)n2)nc(C(N)=O)c1N` [Compound 170] the IC50 [1] was 23 nM and the IC50 ([2]; 2 h, 2 h incubation) was 1100 nM.
For `Cc1ccc2[nH]ncc2c1-c1cc2c(oc3cccnc32)c(C(N)=O)c1N` [Compound 458, 7-amino-8-(5-methyl-1H-indazol-4-yl)benzofuro[3,2-b]pyridine-6-carboxamide], the IC50 [1] was 2 nM and the IC50 ([2]; 2 h, 2 h compound incubation) was 142 nM.
`Cc1ccc2[nH]ncc2c1-c1nc(-c2ccccc2N[C@H](C)C(F)(F)F)nc(C(N)=O)c1N` [Compound 430] showed an IC50 [1] of 8 nM and an IC50 ([2]; 2 h, 2 h compound incubation) of 8 nM.
In the case of `COC(C)COc1nccc(-c2cc(-c3c(C)ccc4[nH]ncc34)c(N)c(C(N)=O)n2)n1` (centres unmarked) [Compound 303], the IC50 [1] is reported as 7 nM and the IC50 ([2]; 2 h, 2 h incubation) is reported as 155 nM.
For `Cc1ccc2[nH]ncc2c1-c1nc(-c2cc(F)ccc2Nc2ncccn2)nc(C(N)=O)c1N` [Compound 472], the IC50 [1] was 6 nM and the IC50 ([2]; 2 h, 2 h compound incubation) was 26 nM.
`Cc1cccnc1Nc1ncccc1-c1nc(C(N)=O)c(N)c(-c2c(C)ccc3[nH]ncc23)n1` [Compound 622] showed an IC50 [1] of 4 nM and an IC50 ([2]; 2 h, 2 h compound incubation) of 10 nM.
For `Cc1ccc2[nH]ncc2c1-c1cc(-c2cccc(OCc3cscn3)n2)nc(C(N)=O)c1N` [Compound 278], the IC50 [1] was 5 nM and the IC50 ([2]; 2 h, 2 h incubation) was 158 nM.
Work on `Cc1ccc(O)c(C)c1-c1cc(C2CC2)nc(C(N)=O)c1N` [Compound 54] yielded an IC50 [1] of 18 nM and an IC50 ([2]; 2 h, 2 h incubation) of 2410 nM.
In the case of `Cc1ncc(C#N)c(Nc2cc(F)ccc2-c2nc(C(N)=O)c(N)c(-c3c(C)ccc4[nH]ncc34)n2)n1` [Compound 618], the IC50 [1] is reported as 3 nM and the IC50 ([2]; 2 h, 2 h compound incubation) is reported as 5 nM.
Work on `Cc1ccc2[nH]ncc2c1-c1nc(-c2cccnc2NC2(C)CC(C)(O)C2)nc(C(N)=O)c1N` (centres unmarked) [Compound 901] yielded an IC50 [1] of less than 3 nM and an IC50 ([2]; 2 h, 2 hours with compound) of 27 nM.
In the case of `Cc1ccc2[nH]ncc2c1-c1nc(-c2cccc3c2NC(=O)C3)nc(C(N)=O)c1N` [Compound 385], the IC50 [1] is reported as 5 nM and the IC50 ([2]; 2 h, 2 h incubation) is reported as 289 nM.
`Cc1ccc2[nH]ncc2c1-c1nc(-c2ccccc2NC(=O)OC(C)(C)C)nc(C(N)=O)c1N` [Compound 474] gave an IC50 [1] of 16 nM and an IC50 ([2]; 2 h, 2 h compound incubation) of 398 nM.
In the case of `Cc1ccc2[nH]ncc2c1-c1nc(-c2cccc3cn[nH]c23)nc(C(N)=O)c1N` [Compound 323], the IC50 [1] is reported as 6 nM and the IC50 ([2]; 2 h, 2 h incubation) is reported as 108 nM.
In the case of `Cc1ccc2[nH]ncc2c1-c1nc(-c2cc(F)ncc2NC2CCOCC2)nc(C(N)=O)c1N` [Compound 843], the IC50 [1] is reported as 3 nM and the IC50 ([2]; 2 h, 2 hours with compound) is reported as 22 nM.
In the case of `Cc1ccnc(Nc2cc(F)ccc2-c2nc(C(N)=O)c(N)c(-c3c(C)ccc4[nH]ncc34)n2)c1` [Compound 616], the IC50 [1] is reported as 11 nM and the IC50 ([2]; 2 h, 2 h compound incubation) is reported as 192 nM.
With `Cc1ccc2[nH]ncc2c1-c1nc(-c2cccc(F)c2NC(=O)C2(C)CC2)nc(C(N)=O)c1N` [Compound 456] the IC50 [1] was 6 nM and the IC50 ([2]; 2 h, 2 h compound incubation) was 158 nM.
`Cc1ccc(O)cc1-c1nc(-c2cccc(Cl)c2)nc(C(N)=O)c1N` [Compound 29] was tested, and the IC50 [1] was 25 nM and the IC50 ([2]; 2 h, 2 h incubation) was 1220 nM.
`COCCCOc1nccc(-c2cc(-c3c(C)ccc4[nH]ncc34)c(N)c(C(N)=O)n2)n1` [Compound 197] was tested, and the IC50 [1] was 12 nM and the IC50 ([2]; 2 h, 2 h incubation) was 267 nM.
`Cc1ccc2[nH]ncc2c1-c1nc(-c2ccc3c(cnn3C)c2)nc(C(N)=O)c1N` [Compound 114] gave an IC50 [1] of 46 nM and an IC50 ([2]; 2 h, 2 h incubation) of 3760 nM.
In the case of `Cc1ccc2[nH]ncc2c1-c1cc(-c2ccnc(OCc3ccccn3)n2)nc(C(N)=O)c1N` [Compound 229], the IC50 [1] is reported as 4 nM and the IC50 ([2]; 2 h, 2 h incubation) is reported as 134 nM.
`Cc1ccc2[nH]ncc2c1-c1cc(-c2cccc(OC[C@H](N)c3ccccc3)n2)nc(C(N)=O)c1N` [Compound 276] was tested, and the IC50 [1] was 2 nM and the IC50 ([2]; 2 h incubation) was 11 nM.
`Cc1ccc(O)c(C)c1-c1cc(-c2nc3ccccc3s2)nc(C(N)=O)c1N` [Compound 55] was tested, and the IC50 [1] was 15 nM and the IC50 ([2]; 2 h incubation) was 146 nM.
For `Cc1ccc2[nH]ncc2c1-c1nc(-c2cc(F)c(F)cc2NC2CC(F)(F)C2)nc(C(N)=O)c1N` [Compound 475], the IC50 [1] was 14 nM and the IC50 ([2]; 2 h, 2 h compound incubation) was 138 nM.
Compound `Cc1ccc(O)c(C)c1-c1cc(-c2cccc(C(N)=O)c2)nc(C(N)=O)c1N` [Compound 51] has an IC50 [1] of 8 nM and an IC50 ([2]; 2 h, 2 h incubation) of 357 nM.
In the case of `Cc1ccc2[nH]ncc2c1-c1nc(-c2ccccc2NC(C)(C)C)nc(C(N)=O)c1N` [Compound 451], the IC50 [1] is reported as 7 nM and the IC50 ([2]; 2 h, 2 h compound incubation) is reported as 104 nM.
For `Cc1ccc2[nH]ncc2c1-c1nc(-c2ccc(F)cc2Nc2cc(C#N)ccn2)nc(C(N)=O)c1N` [Compound 612], the IC50 [1] was 12 nM and the IC50 ([2]; 2 h, 2 h compound incubation) was 214 nM.
Compound `Cc1ccc2[nH]ncc2c1-c1cc(-c2ccnc(OCCc3ccn(C)n3)n2)nc(C(N)=O)c1N` [Compound 312] has an IC50 [1] of 9 nM and an IC50 ([2]; 2 h, 2 h incubation) of 596 nM.
In the case of `Cc1ccc2[nH]ncc2c1-c1cc(-c2cccc(Oc3cccc(N4CCCC4)c3)n2)nc(C(N)=O)c1N` [Compound 182], the IC50 [1] is reported as 15 nM and the IC50 ([2]; 2 h, 2 h incubation) is reported as 1600 nM.
Compound `Cc1ccc2[nH]ncc2c1-c1cc(-c2ccnc(Oc3ccccc3)n2)nc(C(N)=O)c1N` [Compound 173] has an IC50 [1] of 6 nM and an IC50 ([2]; 2 h, 2 h incubation) of 278 nM.
`Cc1ccc2[nH]ncc2c1-c1cc(-c2cccnc2)nc(C(N)=O)c1N` [Compound 107] showed an IC50 [1] of 11 nM and an IC50 ([2]; 2 h, 2 h incubation) of 495 nM.
With `Cc1ccc(O)c(C)c1-c1cc(-c2cccc(OC3CCOCC3)n2)nc(C(N)=O)c1N` [Compound 57] the IC50 [1] was 7 nM and the IC50 ([2]; 2 h, 2 h incubation) was 46 nM.
Compound `Cc1ccc(O)c(C)c1-c1cc(C(=O)Nc2cccnc2)nc(C(N)=O)c1N` [Compound 188, 5-amino-4-(3-hydroxy-2,6-dimethylphenyl)-N2-(pyridin-3-yl)pyridine-2,6-dicarboxamide] has an IC50 [1] of 8 nM and an IC50 ([2]; 2 h, 2 h incubation) of 266 nM.
Work on `Cc1ccc2[nH]ncc2c1-c1cc(-c2ccc(-c3nccs3)nc2)nc(C(N)=O)c1N` [Compound 186] yielded an IC50 [1] of 47 nM and an IC50 ([2]; 2 h, 2 h incubation) of 1690 nM.
With `CCOc1ccccc1-c1nc(C(N)=O)c(N)c(-c2c(C)ccc3[nH]ncc23)n1` [Compound 794] the IC50 [1] was 53 nM and the IC50 ([2]; 2 h, 2 h compound incubation) was 641 nM.
`Cc1ccc(O)c(C)c1-c1cc(-c2ccccn2)cc(C(N)=O)c1N` [Compound 80] was tested, and the IC50 [1] was 8 nM and the IC50 ([2]; 2 h, 2 h incubation) was 259 nM.
`Cc1ccc2[nH]ncc2c1-c1nc(-c2cccnc2N[C@H](c2cccnc2)C(F)F)nc(C(N)=O)c1N` [Compound 936] gave an IC50 [1] of 2 nM and an IC50 ([2]; 2 h, 2 hours with compound) of 221 nM.
`Cc1ccc2[nH]ncc2c1-c1nc(-c2ccccc2NC(=O)C(C)c2ccccc2)nc(C(N)=O)c1N` (centres unmarked) [Compound 425] showed an IC50 [1] of 139 nM and an IC50 ([2]; 2 h, 2 h compound incubation) greater than 10000 nM.
